# From PMC9977057, “Indenyl-thiazole and indenyl-formazan derivatives: Synthesis, anticancer screening studies, molecular-docking, and pharmacokinetic/ molin-spiration properties” (PLOS ONE, 2023)
# Assays:
# [1] = system: Gastric (SNU-16) Patch number (ATCC CRL-5822); experiment: SRB cytotoxicity assay, gastric cancer cells SNU-16; format: cell-based
# Description: (§1) A- Cell culture. The cells were obtained from the Egyptian Holding Company for Biological Products & Vaccines (VACSERA), Giza, Egypt, then maintained in the tissue culture unit. […] The cells were maintained as monolayer culture by serial sub‐culturing. Cell culture reagents were obtained from Lonza (Basel, Switzerland).
# (§2) Sulforhodamine B(SRB) assay method was used to evaluate cytotoxicity. […] After 24 h, cells were incubated for 72 h with various concentrations of the tested compounds. Following 72 h treatments, the cells would be fixed with 10% trichloroacetic acid for 1 h at 4°C. Wells were stained for 10 minutes at room temperature with 0.4% SRBC (Sulphorhodamine B) dissolved in 1% acetic acid. After that, the plates were air-dried for 24 h. At the same time, the dye was dissolved in Tris‐HCl and left for 5 min on the shaker at 1600 rpm. Each well’s optical density (OD) was measured spectrophotometrically at 564 nm; by using an ELISA microplate reader (ChroMate‐4300, FL, USA). The IC50 values were calculated according to the equation for Boltzman sigmoidal concentration-response curve using the nonlinear regression fitting models (Graph Pad, Prism Version 9).
# [2] = system: COLO205 cells (colon cancer); experiment: SRB cytotoxicity assay, colon cancer cells COLO205; format: cell-based
# Description: as §1, §2
# normal cell = experiment: Cytotoxicity on a normal cell (for selectivity index); format: cell-based; conditions: for IC50: column head names no cell, normal cell according to b79; for SI (selectivity index): ratio IC50 on normal cell / IC50 on cancer cell line
# Description: Sulforhodamine B(SRB) assay method was used to evaluate cytotoxicity. Exponentially growing cells were collected using 0.25% Trypsin‐EDTA seeded in 96‐well plates at 1000‐2000 cells/well in RBMI‐1640 supplemented medium. After 24 h, cells were incubated for 72 h with various concentrations of the tested compounds. Following 72 h treatments, the cells would be fixed with 10% trichloroacetic acid for 1 h at 4°C. Wells were stained for 10 minutes at room temperature with 0.4% SRBC (Sulphorhodamine B) dissolved in 1% acetic acid. After that, the plates were air-dried for 24 h. At the same time, the dye was dissolved in Tris‐HCl and left for 5 min on the shaker at 1600 rpm. Each well’s optical density (OD) was measured spectrophotometrically at 564 nm; by using an ELISA microplate reader (ChroMate‐4300, FL, USA). The IC50 values were calculated according to the equation for Boltzman sigmoidal concentration-response curve using the nonlinear regression fitting models (Graph Pad, Prism Version 9).
# The compounds show good selectivity toward cancerous cells, represented by the “selectivity index.” The selectivity index was previously used to measure selective cytotoxic activity. The selectivity index (SI) can be calculated from the ratio between IC50 of the compound on a normal cell and the compound on a cancer cell line. For example, the SI of compounds 6d, 10a, 10d, and 16 are 86.98, 76.82, 74.32, and 54.13, respectively.
# [3] = Homo sapiens, SNU-16, 72 h incubation
# [4] = Homo sapiens, COLO 205, 72 h incubation
melting point,Compound,"IC50 [1, 3]","IC50 [2, 4]",IC50 (normal cell),SI (selectivity index) (normal cell),IC50 ([1]; 72 h incubation),IC50 ([2]; 72 h incubation)
220 to 222 °C,"Cc1nc(N/N=C2\CCc3cc(Br)ccc32)sc1/N=N/c1ccccc1 [6a, 2-(2h4(5-Bromo-2,3-dihydro-1H-inden-1-ylidene)hydrazineyl)-4-methyl-5-(phenyldiazenyl)-thiazole]",21.79 ± 0.076 µM,17.14 ± 0.12 µM,> 100 µM,,,
128 to 129 °C,"Cc1cccc(N=Nc2sc(NN=C3CCc4cc(Br)ccc43)nc2C)c1 [6b, 2-(2-(5-Bromo-2,3-dihydro-1H-inden-1-ylidene)hydrazineyl)-4-methyl-5-(m-tolyldiazenyl)-thiazole]",12.28 ± 0.03 µM,9.813 ± 0.005 µM,> 100 µM,,,
130 to 132 °C,"Cc1ccc(N=Nc2sc(NN=C3CCc4cc(Br)ccc43)nc2C)cc1 [6c, 2-(2-(5-Bromo-2,3-dihydro-1H-inden-1-ylidene)hydrazineyl)-4-methyl-5-(p-tolyldiazenyl)thiazole]",12.89 ± 0.076 µM,7.576 ± 0.07 µM,> 100 µM,,,
,"Cc1nc(NN=C2CCc3cc(Br)ccc32)sc1N=Nc1cccc(Cl)c1 [6d, 2-(2-(5-Bromo-2,3-dihydro-1H-inden-1-ylidene)hydrazineyl)-5-((3-chlorophenyl)-diazenyl)-4-methylthiazole]",19.79 ± 0.129 µM,6.958 ± 0.04 µM,605 ± 35.2 µM,86.98,,
177 to 178 °C,"Cc1nc(NN=C2CCc3cc(Br)ccc32)sc1N=Nc1ccc(Cl)cc1 [6e, 2-(2-(5-Bromo-2,3-dihydro-1H-inden-1-ylidene)hydrazineyl)-5-((4-chlorophenyl)diazenyl)-4-methylthiazole]",26.19 ± 0.12 µM,7.276 ± 0.03 µM,> 100 µM,,,
,"Brc1ccc2c(c1)CCC2=NNc1nc(-c2ccccc2)cs1 [10a, N-(5-Bromo-indan-1-ylidene)-N’-(4-phenyl-thiazol-2-yl)-hydrazine]",20 ± 0.64 µM,6.301 ± 0.008 µM,485 ± 7.89 µM,76.82,,
233 to 234 °C,"Cc1ccc(-c2csc(NN=C3CCc4cc(Br)ccc43)n2)cc1 [10b, N-(5-Bromo-indan-1-ylidene)-N’-(4-p-tolyl-thiazol-2-yl)-hydrazine]",18.3 ± 0.39 µM,12.08 ± 0.006 µM,> 100 µM,,,
230 to 232 °C,"Brc1ccc(-c2csc(NN=C3CCc4cc(Br)ccc43)n2)cc1 [10c, N-(5-Bromo-indan-1-ylidene)-N’-[4-(4-bromo-phenyl)-thiazol-2-yl]-hydrazine]",26.8 ± 0.6 µM,13.81 ± 0.025 µM,> 100 µM,,,
,"Clc1ccc(-c2csc(NN=C3CCc4cc(Br)ccc43)n2)cc1 [10d, N-(5-Bromo-indan-1-ylidene)-N’-[4-(4-chloro-phenyl)-thiazol-2-yl]-hydrazine]",7.576 ± 0.075 µM,12.16 ± 0.06 µM,563 ± 44.2 µM,74.32,,
190 °C,"CC(=O)C(=NNc1ccccc1)NN=C1CCc2cc(Br)ccc21 [14a, N’-(5-bromo-2,3-dihydro-1H-inden-1-ylidene)-2-oxo-N’’-phenylpropanehydrazonhydrazide]",14.9 ± 0.3 µM,11.27 ± 0.046 µM,> 100 µM,,,
197 to 198 °C,"CC(=O)/C(=N\Nc1ccc(Cl)cc1)N/N=C1\CCc2cc(Br)ccc21 [14b, N’-(5-bromo-2,3-dihydro-1H-inden-1-ylidene)-N’’-(4-chlorophenyl)-2-oxopropanehydrazon-hydrazide]",13.8 ± 0.69 µM,10.61 ± 0.09 µM,> 100 µM,,,
,"N.N.[Cl][Pt][Cl] [Cisplatin, reference compound]",,,548 ± 61.2 µM,,11.27 ± 0.076 µM,9.13 ± 0.07 µM
227 to 230 °C,"NC(=S)NN=C1CCc2cc(Br)ccc21 [compound 3, 2-(5-Bromo-2,3-dihydro-1H-inden-1-ylidene)hydrazine-1-carbothioamide]",19.01 ± 0.133 µM,14.1 ± 0.04 µM,> 100 µM,,,
120 °C,"NN=C1CCc2cc(Br)ccc21 [compound 4, (5-Bromo-indan-1-ylidene)-hydrazine]",23.2 ± 0.204 µM,8.167 ± 0.07 µM,> 100 µM,,,
174 to 176 °C,"CCOC(=O)C(=NNc1ccccc1)NN=C1CCc2cc(Br)ccc21 [compound 15, Ethyl 2-(2-(5-bromo-2,3-dihydro-1H-inden-1-ylidene)hydrazineyl)-2-(2-phenyl-hydrazineylidene)acetate]",16.6 ± 0.38 µM,13.63 ± 0.04 µM,> 100 µM,,,
,"O=C(Nc1ccccc1)C(=NNc1ccccc1)NN=C1CCc2cc(Br)ccc21 [compound 16, 2-(2-(5-Bromo-2,3-dihydro-1H-inden-1-ylidene)hydrazineyl)-N-phenyl-2-(2-phenyl-hydrazineylidene)acetamide]",9.699 ± 0.0726 µM,13.04 ± 0.025 µM,525 ± 36.2 µM,54.13,,
,"CCN(CC)CCNC(=O)c1c(C)[nH]c(/C=C2\C(=O)Nc3ccc(F)cc32)c1C [sunitinib, reference compound]",8.45 ± 0.023 µM,11.27 ± 0.033 µM,378 ± 31.8 µM,,,
